# Experimental data: ChEMBL document CHEMBL4390652, “Design, biological evaluation and X-ray crystallography of nanomolar multifunctional ligands targeting simultaneously acetylcholinesterase and glycogen synthase kinase-3” (Eur J Med Chem, 2019)
# Assays:
# [1] = molecular target: Dual specificity mitogen-activated protein kinase kinase 1 (Homo sapiens) (UniProt Q02750); assay: Binding affinity to wild-type human full length MEK1 (M1 to V393 residues) expressed in mammalian expression system assessed as residual binding level at 10 uM by Kinomescan method relative to control
# [2] = system: Epidermal growth factor receptor (Homo sapiens), P00533 [UNDEFINED MUTATION]; assay: Binding affinity to human partial length EGFR L747-E749del/A750P mutant expressed in bacterial expression system assessed as residual binding level at 10 uM by Kinomescan method relative to control
# [3] = molecular target: Serine/threonine-protein kinase PknB (Mycobacterium tuberculosis) (UniProt P9WI81); assay: Binding affinity to wild-type Mycobacterium tuberculosis partial length PKNB (M1 to G279 residues) expressed in mammalian expression system assessed as residual binding level at 10 uM by Kinomescan method relative to control
# Sequence of Serine/threonine-protein kinase PknB (Mycobacterium tuberculosis) (P9WI81 whole entry, the tested form may be a part): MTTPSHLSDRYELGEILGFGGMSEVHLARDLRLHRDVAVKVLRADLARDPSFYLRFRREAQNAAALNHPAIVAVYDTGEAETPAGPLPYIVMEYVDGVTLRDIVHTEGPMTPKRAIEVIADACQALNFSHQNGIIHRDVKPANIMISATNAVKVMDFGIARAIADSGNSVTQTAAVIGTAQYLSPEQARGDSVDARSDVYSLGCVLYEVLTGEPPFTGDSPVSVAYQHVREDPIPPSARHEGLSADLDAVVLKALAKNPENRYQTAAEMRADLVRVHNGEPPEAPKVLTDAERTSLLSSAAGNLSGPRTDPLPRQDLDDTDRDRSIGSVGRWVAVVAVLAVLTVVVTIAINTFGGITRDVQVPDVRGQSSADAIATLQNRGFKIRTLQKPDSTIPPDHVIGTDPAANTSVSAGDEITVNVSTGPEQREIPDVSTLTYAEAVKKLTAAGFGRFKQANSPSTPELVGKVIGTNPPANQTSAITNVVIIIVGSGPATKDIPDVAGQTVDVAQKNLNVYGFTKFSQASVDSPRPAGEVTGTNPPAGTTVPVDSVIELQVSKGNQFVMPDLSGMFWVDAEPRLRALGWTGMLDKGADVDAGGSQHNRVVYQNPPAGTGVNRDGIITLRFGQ
# [4] = molecular target: Ribosomal protein S6 kinase alpha-6 (Homo sapiens) (UniProt Q9UK32); assay: Binding affinity to wild-type human partial length C-terminal RSK4 kinase domain 2 (I401 to Y711 residues) expressed in bacterial expression system assessed as residual binding level at 10 uM by Kinomescan method relative to control
# [5] = molecular target: Receptor-interacting serine/threonine-protein kinase 2 (Homo sapiens) (UniProt O43353); assay: Binding affinity to wild-type human partial length RIPK2 (M1 to K310 residues) expressed in bacterial expression system assessed as residual binding level at 10 uM by Kinomescan method relative to control
# [6] = molecular target: Phosphatidylinositol 4-phosphate 3-kinase C2 domain-containing subunit beta (Homo sapiens) (UniProt O00750); assay: Binding affinity to wild-type human partial length PIK3C2B (M1 to L1634 residues) expressed in mammalian expression system assessed as residual binding level at 10 uM by Kinomescan method relative to control
# [7] = molecular target: Homeodomain-interacting protein kinase 4 (Homo sapiens) (UniProt Q8NE63); assay: Binding affinity to wild-type human partial length HIPK4 (M1 to V384 residues) expressed in bacterial expression system assessed as residual binding level at 10 uM by Kinomescan method relative to control
# Sequence of Homeodomain-interacting protein kinase 4 (Homo sapiens) (Q8NE63 whole entry, the tested form may be a part): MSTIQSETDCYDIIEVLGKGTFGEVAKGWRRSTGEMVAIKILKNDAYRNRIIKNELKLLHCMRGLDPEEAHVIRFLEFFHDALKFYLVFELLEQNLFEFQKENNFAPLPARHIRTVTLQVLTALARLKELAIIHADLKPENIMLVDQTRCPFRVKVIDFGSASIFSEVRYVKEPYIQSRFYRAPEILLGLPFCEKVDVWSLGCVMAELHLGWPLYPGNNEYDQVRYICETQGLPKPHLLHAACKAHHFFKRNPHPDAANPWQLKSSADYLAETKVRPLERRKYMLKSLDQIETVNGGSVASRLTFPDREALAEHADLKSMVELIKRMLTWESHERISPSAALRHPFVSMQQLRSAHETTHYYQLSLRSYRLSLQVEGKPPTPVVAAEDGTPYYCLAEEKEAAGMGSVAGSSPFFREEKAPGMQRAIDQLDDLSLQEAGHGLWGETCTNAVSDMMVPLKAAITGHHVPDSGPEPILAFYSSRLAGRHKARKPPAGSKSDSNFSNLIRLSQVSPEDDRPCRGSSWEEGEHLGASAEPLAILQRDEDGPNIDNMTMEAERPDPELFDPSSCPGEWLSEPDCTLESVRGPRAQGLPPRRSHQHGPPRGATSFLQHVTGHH
# [8] = molecular target: Myosin light chain kinase (Homo sapiens) (UniProt Q32MK0); assay: Binding affinity to wild-type human partial length MLCK (D488 to K800 residues) expressed in bacterial expression system assessed as residual binding level at 10 uM by Kinomescan method relative to control
# Sequence of Myosin light chain kinase (Homo sapiens) (Q32MK0 whole entry, the tested form may be a part): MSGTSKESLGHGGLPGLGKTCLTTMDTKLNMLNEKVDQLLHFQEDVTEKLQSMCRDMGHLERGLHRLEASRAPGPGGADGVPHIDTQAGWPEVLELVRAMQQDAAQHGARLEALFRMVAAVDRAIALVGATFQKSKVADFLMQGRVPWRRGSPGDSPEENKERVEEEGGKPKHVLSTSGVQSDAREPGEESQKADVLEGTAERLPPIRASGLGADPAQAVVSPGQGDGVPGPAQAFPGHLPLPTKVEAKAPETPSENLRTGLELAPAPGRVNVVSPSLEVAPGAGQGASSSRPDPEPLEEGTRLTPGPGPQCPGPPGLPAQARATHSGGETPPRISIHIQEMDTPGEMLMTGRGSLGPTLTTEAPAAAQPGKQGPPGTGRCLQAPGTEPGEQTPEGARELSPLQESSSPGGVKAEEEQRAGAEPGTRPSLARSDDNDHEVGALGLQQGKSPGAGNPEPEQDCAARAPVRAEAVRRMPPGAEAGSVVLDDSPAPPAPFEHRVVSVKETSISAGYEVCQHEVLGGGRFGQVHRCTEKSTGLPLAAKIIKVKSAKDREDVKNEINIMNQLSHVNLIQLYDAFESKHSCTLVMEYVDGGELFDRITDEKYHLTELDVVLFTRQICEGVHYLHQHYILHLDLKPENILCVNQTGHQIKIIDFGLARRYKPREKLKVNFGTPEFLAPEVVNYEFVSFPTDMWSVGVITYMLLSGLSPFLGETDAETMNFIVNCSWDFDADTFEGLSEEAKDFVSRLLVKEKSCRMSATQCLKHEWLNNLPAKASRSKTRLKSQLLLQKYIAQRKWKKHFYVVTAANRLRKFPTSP
# [9] = molecular target: Tyrosine-protein kinase Yes (Homo sapiens) (UniProt P07947); assay: Binding affinity to wild-type human partial length YES (T257 to L543 residues) expressed in bacterial expression system assessed as residual binding level at 10 uM by Kinomescan method relative to control
# Sequence of Tyrosine-protein kinase Yes (Homo sapiens) (P07947 2-543 limits assumed): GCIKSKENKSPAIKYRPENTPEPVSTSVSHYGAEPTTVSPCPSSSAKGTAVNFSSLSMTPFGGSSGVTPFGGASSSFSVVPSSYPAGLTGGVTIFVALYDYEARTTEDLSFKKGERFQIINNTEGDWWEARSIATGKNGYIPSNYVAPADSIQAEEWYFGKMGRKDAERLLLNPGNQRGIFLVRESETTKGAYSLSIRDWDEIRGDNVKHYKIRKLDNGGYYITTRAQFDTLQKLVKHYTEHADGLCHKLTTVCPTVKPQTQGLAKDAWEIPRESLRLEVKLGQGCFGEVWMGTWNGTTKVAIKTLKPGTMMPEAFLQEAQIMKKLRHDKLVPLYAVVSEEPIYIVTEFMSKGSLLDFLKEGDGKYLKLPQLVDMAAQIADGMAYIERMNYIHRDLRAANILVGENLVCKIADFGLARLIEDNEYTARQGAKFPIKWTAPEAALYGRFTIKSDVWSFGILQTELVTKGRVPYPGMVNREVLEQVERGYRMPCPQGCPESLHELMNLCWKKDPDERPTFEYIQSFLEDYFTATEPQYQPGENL
# [10] = molecular target: Mitogen-activated protein kinase kinase kinase kinase 1 (Homo sapiens) (UniProt Q92918); assay: Binding affinity to wild-type human full length HPK1 (M1 to R799 residues) expressed in bacterial expression system assessed as residual binding level at 10 uM by Kinomescan method relative to control
# [11] = molecular target: Serine/threonine-protein kinase tousled-like 1 (Homo sapiens) (UniProt Q9UKI8); assay: Binding affinity to wild-type human partial length TLK1 (K447 to A754 residues) expressed in bacterial expression system assessed as residual binding level at 10 uM by Kinomescan method relative to control
# Sequence of Serine/threonine-protein kinase tousled-like 1 (Homo sapiens) (Q9UKI8 whole entry, the tested form may be a part): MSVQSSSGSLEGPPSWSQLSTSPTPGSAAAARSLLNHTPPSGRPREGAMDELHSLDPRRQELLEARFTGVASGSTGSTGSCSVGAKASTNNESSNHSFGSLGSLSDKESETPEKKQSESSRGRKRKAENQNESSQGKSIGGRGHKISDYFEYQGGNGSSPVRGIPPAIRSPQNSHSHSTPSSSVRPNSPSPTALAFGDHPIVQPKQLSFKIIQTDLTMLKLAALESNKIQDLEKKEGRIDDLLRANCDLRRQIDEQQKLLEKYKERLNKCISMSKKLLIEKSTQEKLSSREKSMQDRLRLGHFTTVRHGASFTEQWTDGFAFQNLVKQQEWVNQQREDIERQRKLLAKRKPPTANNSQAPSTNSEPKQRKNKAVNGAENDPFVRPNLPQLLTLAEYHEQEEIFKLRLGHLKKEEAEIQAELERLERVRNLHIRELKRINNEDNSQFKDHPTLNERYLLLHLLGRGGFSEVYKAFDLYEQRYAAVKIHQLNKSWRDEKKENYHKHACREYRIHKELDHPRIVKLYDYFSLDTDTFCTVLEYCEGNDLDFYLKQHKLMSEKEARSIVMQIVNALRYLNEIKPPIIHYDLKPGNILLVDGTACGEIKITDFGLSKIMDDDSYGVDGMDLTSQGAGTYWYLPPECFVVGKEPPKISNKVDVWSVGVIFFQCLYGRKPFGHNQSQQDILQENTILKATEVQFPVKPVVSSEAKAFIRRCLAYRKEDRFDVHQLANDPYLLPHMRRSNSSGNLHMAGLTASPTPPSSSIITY
# [12] = molecular target: Protein-tyrosine kinase 6 (Homo sapiens) (UniProt Q13882); assay: Binding affinity to wild-type human partial length BRK (L166 to T451 residues) expressed in bacterial expression system assessed as residual binding level at 10 uM by Kinomescan method relative to control
# [13] = molecular target: Mitogen-activated protein kinase 6 (Homo sapiens) (UniProt Q16659); assay: Binding affinity to wild-type human partial length ERK3 (M1 to P413 residues) expressed in bacterial expression system assessed as residual binding level at 10 uM by Kinomescan method relative to control
# [14] = molecular target: Serine/threonine-protein kinase MARK2 (Homo sapiens) (UniProt Q7KZI7); assay: Binding affinity to wild-type human partial length MARK2 (M1 to R450 residues) expressed in bacterial expression system assessed as residual binding level at 10 uM by Kinomescan method relative to control
# Sequence of Serine/threonine-protein kinase MARK2 (Homo sapiens) (Q7KZI7 whole entry, the tested form may be a part): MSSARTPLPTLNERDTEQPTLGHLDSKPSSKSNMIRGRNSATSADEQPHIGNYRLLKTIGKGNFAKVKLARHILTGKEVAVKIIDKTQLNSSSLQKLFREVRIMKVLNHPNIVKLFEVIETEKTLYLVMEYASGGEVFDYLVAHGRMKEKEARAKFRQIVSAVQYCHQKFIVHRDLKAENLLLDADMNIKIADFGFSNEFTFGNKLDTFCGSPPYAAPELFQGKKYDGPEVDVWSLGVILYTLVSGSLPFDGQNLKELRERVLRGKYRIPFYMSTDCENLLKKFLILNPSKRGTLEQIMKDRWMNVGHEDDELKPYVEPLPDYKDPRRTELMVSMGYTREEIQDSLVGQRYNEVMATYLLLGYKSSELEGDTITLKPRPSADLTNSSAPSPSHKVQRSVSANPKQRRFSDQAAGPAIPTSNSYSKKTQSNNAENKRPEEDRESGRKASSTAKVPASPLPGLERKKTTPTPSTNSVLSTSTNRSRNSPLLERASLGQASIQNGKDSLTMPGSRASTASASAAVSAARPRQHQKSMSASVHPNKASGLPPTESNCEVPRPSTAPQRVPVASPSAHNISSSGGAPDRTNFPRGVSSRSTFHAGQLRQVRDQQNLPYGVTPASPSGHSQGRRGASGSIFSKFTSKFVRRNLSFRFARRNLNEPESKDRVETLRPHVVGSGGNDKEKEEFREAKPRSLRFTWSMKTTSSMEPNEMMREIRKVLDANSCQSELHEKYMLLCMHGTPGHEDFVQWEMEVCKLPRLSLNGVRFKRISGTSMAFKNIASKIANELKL
# [15] = system: Epidermal growth factor receptor (Homo sapiens), P00533 [L858R,T790M]; assay: Binding affinity to human partial length EGFR L858R/T790M double mutant (R669 to V1011 residues) expressed in mammalian expression system assessed as residual binding level at 10 uM by Kinomescan method relative to control
# [16] = molecular target: NT-3 growth factor receptor (Homo sapiens) (UniProt Q16288); assay: Binding affinity to wild-type human partial length TRKC (Q531 to G825 residues) expressed in mammalian expression system assessed as residual binding level at 10 uM by Kinomescan method relative to control
# Sequence of NT-3 growth factor receptor (Homo sapiens) (Q16288 32-839 limits assumed): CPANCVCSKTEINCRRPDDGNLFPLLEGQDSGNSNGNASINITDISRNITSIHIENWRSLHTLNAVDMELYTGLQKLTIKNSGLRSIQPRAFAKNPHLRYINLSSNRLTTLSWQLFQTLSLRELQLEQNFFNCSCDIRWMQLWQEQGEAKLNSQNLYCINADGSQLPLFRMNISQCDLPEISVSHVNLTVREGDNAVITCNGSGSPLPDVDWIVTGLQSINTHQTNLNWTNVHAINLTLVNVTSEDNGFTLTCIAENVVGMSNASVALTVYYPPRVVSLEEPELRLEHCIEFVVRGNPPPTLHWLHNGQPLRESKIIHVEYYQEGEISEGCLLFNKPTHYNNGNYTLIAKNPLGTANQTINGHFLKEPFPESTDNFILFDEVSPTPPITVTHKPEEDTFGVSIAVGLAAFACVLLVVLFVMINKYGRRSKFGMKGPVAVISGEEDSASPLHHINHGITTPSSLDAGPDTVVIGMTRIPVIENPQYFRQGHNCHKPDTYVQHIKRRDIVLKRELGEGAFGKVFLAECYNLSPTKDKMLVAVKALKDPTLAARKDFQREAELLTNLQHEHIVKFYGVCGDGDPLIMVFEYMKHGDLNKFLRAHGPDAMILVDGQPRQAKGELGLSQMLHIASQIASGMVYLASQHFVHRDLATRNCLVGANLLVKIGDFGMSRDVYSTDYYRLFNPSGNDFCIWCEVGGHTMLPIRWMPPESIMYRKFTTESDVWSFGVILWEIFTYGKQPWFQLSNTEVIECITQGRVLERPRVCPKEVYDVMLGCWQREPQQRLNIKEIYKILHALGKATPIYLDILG
# [17] = molecular target: Proto-oncogene tyrosine-protein kinase Src (Homo sapiens) (UniProt P12931); assay: Binding affinity to wild-type human partial length SRC (L240 to L536 residues) expressed in bacterial expression system assessed as residual binding level at 10 uM by Kinomescan method relative to control
# [18] = molecular target: Serine/threonine-protein kinase mTOR (Homo sapiens) (UniProt P42345); assay: Binding affinity to wild-type human partial length MTOR (L1382 to W2549 residues) expressed in mammalian expression system assessed as residual binding level at 10 uM by Kinomescan method relative to control
# [19] = molecular target: Serine/threonine-protein kinase TNNI3K (Homo sapiens) (UniProt Q59H18); assay: Binding affinity to wild-type human full length TNNI3K (M1 to S835 residues) expressed in bacterial expression system assessed as residual binding level at 10 uM by Kinomescan method relative to control
# [20] = molecular target: Platelet-derived growth factor receptor alpha (Homo sapiens) (UniProt P16234); assay: Binding affinity to wild-type human partial length PDGFRA (V575 to D1002 residues) expressed in mammalian expression system assessed as residual binding level at 10 uM by Kinomescan method relative to control
# [21] = molecular target: Maternal embryonic leucine zipper kinase (Homo sapiens) (UniProt Q14680); assay: Binding affinity to wild-type human full length MELK (M1 to V651 residues) expressed in bacterial expression system assessed as residual binding level at 10 uM by Kinomescan method relative to control
# [22] = molecular target: CDK4/Cyclin D3 (Homo sapiens) (UniProt P11802+P30281); assay: Binding affinity to wild-type human full length CDK4/cyclinD3 (M1 to E303 residues) expressed in mammalian expression system assessed as residual binding level at 10 uM by Kinomescan method relative to control
# [23] = molecular target: Casein kinase I isoform alpha-like (Homo sapiens) (UniProt Q8N752); assay: Binding affinity to wild-type human full length CSNK1A1L (M1 to N337 residues) expressed in bacterial expression system assessed as residual binding level at 10 uM by Kinomescan method relative to control
# [24] = molecular target: Inhibitor of nuclear factor kappa-B kinase subunit beta (Homo sapiens) (UniProt O14920); assay: Binding affinity to wild-type human full length IKK-beta (M1 to S756 residues) expressed in mammalian expression system assessed as residual binding level at 10 uM by Kinomescan method relative to control
smiles,measurement,setting,value
O=C(Nc1cc(-c2cn(CCNc3c4c(nc5ccccc35)CCCC4)nn2)ccn1)Nc1cccc2c1C1CCCCN1C2=O (racemic),Activity,[1],7.6%
same,Activity,[2],68%
same,Activity,[3],3.3%
same,Activity,[4],57%
same,Activity,[5],66%
same,Activity,[6],51%
same,Activity,[7],84%
same,Activity,[8],0.35%
same,Activity,[9],76%
same,Activity,[10],12%
same,Activity,[11],51%
same,Activity,[12],90%
same,Activity,[13],8.7%
same,Activity,[14],46%
same,Activity,[15],87%
same,Activity,[16],14%
same,Activity,[17],24%
same,Activity,[18],100%
same,Activity,[19],100%
same,Activity,[20],22%
same,Activity,[21],14%
same,Activity,[22],1.4%
same,Activity,[23],4.5%
same,Activity,[24],30%
